The values below come from patent publication US11479546B2, “Antimalarial hexahydropyrimidine analogues” (UCB Biopharma SRL, priority 2018, dated 2022).

The test system of one experiment is Plasmodium falciparum 3D7. Kind of experiment: P. falciparum 3D7 asexual blood stage assay, Assay Procedure Version 2 (SYBR green readout). The experiment is classed as cell-based. The following applies: Plasmodium falciparum, 3D7, Erythrocyte, 72 h, Version 2 of the assay procedure (asterisk *); 72 h incubation in infected erythrocytes; 50,000 nM to 15 nM. The gist of the method: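 Parasite growth read as DNA fluorescence (SYBR green lysis overnight, ex 485/em 528 nm) after 72 h drug exposure of 3D7-infected erythrocytes at 0.5% parasitaemia, 5% haematocrit, 37 °C under 1% O2/3% CO2. Compounds tested 15–50,000 nM final, 0.5% DMSO; normalised to mefloquine (100%) and DMSO (0%), biphasic two-site EC50 fitting.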
In the case of `C[C@@]1(c2cccc(Nc3ccc(F)cc3C#N)c2Cl)CC(=O)N(C2CCOCC2)C(=N)N1` [Example 82, 2-{2-Chloro-3-[(4S)-2-imino-4-methyl-6-oxo-1-(tetrahydro-pyran-4-yl)hexahydropyrimidin-4-yl]anilino}-5-fluorobenzo-nitrile], the IC50 – broadly, the midpoint of a concentration-inhibition curve – was determined as 137 nM.

`C[C@@]1(c2cccc(Nc3ccn4ccnc4c3)c2Cl)CC(=O)N(C2CCOCC2)C(=N)N1` [Example 108, (6S)-6-[2-Chloro-3-(imidazo-[1,2-a]pyridin-7-ylamino)-phenyl]-2-imino-6-methyl-3-(tetrahydropyran-4-yl)-hexahydropyrimidin-4-one] yielded an IC50 of 2040 nM.

The compound `C[C@@]1(c2cccc(Nc3ccc(C#N)nc3)c2Cl)CC(=O)N([C@H]2C[C@@](C)(O)C2)C(=N)N1` [Example 122, 5-{2-Chloro-3-[(4S)-1-(3-hydroxy-3-methylcyclobutyl)-2-imino-4-methyl-6-oxo-hexahydropyrimidin-4-yl]-anilino}pyridine-2-carbonitrile] displayed an IC50 of 4510 nM.

As for `CC1(C)CC(N2C(=N)N[C@](C)(c3cccc(Nc4ccc(C5CC5)nn4)c3Cl)CC2=O)CCO1` (single isomer, unassigned) [Example 150, (6S)-6-{2-Chloro-3-[(6-cyclo-propylpyridazin-3-yl)amino]-phenyl}-3-[(4S*)-2,2-dimethyl-tetrahydropyran-4-yl]-2-imino-6-methylhexahydropyrimidin-4-one], half-maximal inhibition (IC50) was put at 622 nM. Against the preceding compound, the IC50 is about 7.3-fold lower.

On to `C[C@@]1(c2cccc(Nc3ccc(C(F)F)nc3)c2Cl)CC(=O)N(C2CCOCC2)C(=N)N1` [Example 81, (6S)-6-(2-Chloro-3-{[6-(difluoromethyl)pyridin-3-yl]-amino}phenyl)-2-imino-6-methyl-3-tetrahydropyran-4-yl-hexahydropyrimidin-4-one], for which the IC50 was determined as 425 nM.

Turning to `Cc1ccc(Nc2cccc([C@]3(C)CC(=O)N([C@H]4CCO[C@@H](C)C4)C(=N)N3)c2Cl)cn1` (single isomer, unassigned) [Example 136], the midpoint of inhibition, the IC50, lay at 249 nM.

`C[C@@]1(c2cccc(Nc3ccc(N4CCC4)nc3)c2Cl)CC(=O)N(C2CCOCC2)C(=N)N1` [Example 113, (6S)-6-(3-{[6-(Azetidin-1-yl)-pyridin-3-yl]amino}-2-chloro-phenyl)-2-imino-6-methyl-3-(tetrahydropyran-4-yl)-hexahydropyrimidin-4-one] yielded an IC50 of 225 nM.

`C[C@@H]1C[C@H](N2C(=N)N[C@](C)(c3cccc(Nc4ccc(OCC(F)F)nc4)c3Cl)CC2=O)CCO1` (relative stereo) [Example 203, (6S)-6-(2-Chloro-3-{[6-(2,2-difluoroethoxy)pyridin-3-yl]-amino}phenyl)-2-imino-6-methyl-3-[(2R*,4R*)-2-methyl-tetrahydropyran-4-yl]-hexahydropyrimidin-4-one] displayed an IC50 of 57 nM.

For the compound `Cc1ncc(Nc2cccc([C@]3(C)CC(=O)N(C4CCOCC4)C(=N)N3)c2Cl)cc1C(F)(F)F` [Example 93, (6S)-6-(2-Chloro-3-{[6-methyl-5-(trifluoromethyl)pyridin-3-yl]-amino}phenyl)-2-imino-6-methyl-3-(tetrahydropyran-4-yl)hexahydropyrimidin-4-one], inhibition was half-maximal at 70 nM (IC50).

With `C[C@H]1C[C@H](N2C(=N)N[C@](C)(c3cccc(Nc4ccc(C5CC5)nc4)c3Cl)CC2=O)CCO1` (single isomer, unassigned; peak 2) [Example 194, (6S)-6-{2-Chloro-3-[(6-cyclo-propylpyridin-3-yl)amino]-phenyl}-2-imino-6-methyl-3-[(2S*,4R*)-2-methyltetrahydro-pyran-4-yl]hexahydropyrimidin-4-one (Peak 2)], inhibition was half-maximal at 747 nM (IC50).

For the compound `C[C@@]1(c2cccc(Nc3cccc4ccccc34)c2Cl)CC(=O)N(C2CCOCC2)C(=N)N1` [Example 57, (6S)-6-[2-Chloro-3-(1-naphthyl-amino)phenyl]-2-imino-6-methyl-3-(tetrahydropyran-4-yl)hexahydropyrimidin-4-one], the IC50 was 600 nM.

The compound `C[C@@]1(c2cccc(Nc3cccc(OC(F)F)c3)c2Cl)CC(=O)N(C2CCOCC2)C(=N)N1` [Example 63, (6S)-6-{2-Chloro-3-[3-(difluoro-methoxy)anilino]phenyl}-2-imino-6-methyl-3-(tetrahydro-pyran-4-yl)hexahydropyrimidin-4-one] yielded an IC50 of 916 nM.

Take `C[C@@]1(c2cccc(Nc3nccnc3OC(F)F)c2Cl)CC(=O)N(C2CCOCC2)C(=N)N1` [Example 101, (6S)-6-(2-Chloro-3-{[3-(difluoromethoxy)pyrazin-2-yl]-amino}phenyl)-2-imino-6-methyl-3-(tetrahydropyran-4-yl)hexahydropyrimidin-4-one]: the IC50 was determined as 97 nM. Compared with the last compound, the IC50 is about 9.4-fold lower.

`C[C@H]1C[C@@H](N2C(=N)N[C@](C)(c3cccc(Nc4ccc(C5CC5)nc4)c3Cl)CC2=O)CCO1` (relative stereo) [Example 199, (6S)-6-{2-Chloro-3-[(6-cyclo-propylpyridin-3-yl)amino]-phenyl}-2-imino-6-methyl-3-[(2S*,4S*)-2-methyltetrahydro-pyran-4-yl]hexahydropyrimidin-4-one] showed an IC50 of 309 nM.

In the case of `CC[C@]1(O)C[C@H](N2C(=N)N[C@](C)(c3cccc(Nc4ccc(F)cc4)c3Cl)CC2=O)C1` [Example 177, (6S)-6-[2-Chloro-3-(4-fluoro-anilino)phenyl]-3-(3-ethyl-3-hydroxycyclobutyl)-2-imino-6-methylhexahydropyrimidin-4-one (trans isomer)], the half-inhibitory concentration (IC50) came to 2450 nM.

In turn, `C[C@@H]1C[C@H](N2C(=N)N[C@](C)(c3cccc(Nc4ccc(OCC(F)(F)F)nn4)c3Cl)CC2=O)CCO1` (relative stereo) [Example 202, (6S)-6-(2-Chloro-3-{[6-(2,2,2-trifluoroethoxy)pyridazin-3-yl]-amino}phenyl)-2-imino-6-methyl-3-[(2R*,4R*)-2-methyl-tetrahydropyran-4-yl]-hexahydropyrimidin-4-one] returned an IC50 of 112 nM.

In turn, `C[C@@]1(c2cccc(Nc3cccc(-c4ccccc4)c3)c2Cl)CC(=O)N(C2CCOCC2)C(=N)N1` [Example 58, (6S)-6-[2-Chloro-3-(3-phenyl-anilino)phenyl]-2-imino-6-methyl-3-(tetrahydropyran-4-yl)hexahydropyrimidin-4-one] returned an IC50 of 1630 nM.

For `CN(C)c1ccc(Nc2cccc([C@]3(C)CC(=O)N(C4CCOCC4)C(=N)N3)c2Cl)cn1` [Example 72, (6S)-6-(2-Chloro-3-{[6-(dimethylamino)pyridin-3-yl]-amino}phenyl)-2-imino-6-methyl-3-(tetrahydropyran-4-yl)hexahydropyrimidin-4-one], 325 nM corresponded to half-maximal inhibition (IC50). This IC50 is about 5-fold lower than that of the compound before.

`Cc1cc(Cl)c(Nc2cccc([C@]3(C)CC(=O)N(C4CCOCC4)C(=N)N3)c2Cl)cn1` [Example 110, (6S)-6-{2-Chloro-3-[(4-chloro-6-methylpyridin-3-yl)amino]-phenyl}-2-imino-6-methyl-3-(tetrahydropyran-4-yl)-hexahydropyrimidin-4-one] gave an IC50 of 227 nM.

On to `CC(C)(C)c1cnc(Nc2cccc([C@]3(C)CC(=O)N(C4CCOCC4)C(=N)N3)c2Cl)cn1` [Example 107, (6S)-6-{3-[(5-tert-Butylpyrazin-2-yl)amino]-2-chlorophenyl}-2-imino-6-methyl-3-(tetrahydro-pyran-4-yl)hexahydropyrimidin-4-one], for which the IC50 turned out to be 863 nM.

`C[C@@]1(c2cccc(Nc3ccc(OC(F)F)nc3)c2Cl)CC(=O)N(C2CCC(F)(F)CC2)C(=N)N1` [Example 140, (6S)-6-(2-Chloro-3-{[6-(difluoromethoxy)pyridin-3-yl]-amino}phenyl)-3-(4,4-difluoro-cyclohexyl)-2-imino-6-methyl-hexahydropyrimidin-4-one] displayed a half-inhibitory concentration (IC50) of 704 nM.

The compound `Cn1ccc(Nc2cccc([C@]3(C)CC(=O)N(C4CCOCC4)C(=N)N3)c2Cl)cc1=O` [Example 73, (6S)-6-{2-Chloro-3-[(1-methyl-2-oxopyridin-4-yl)amino]-phenyl}-2-imino-6-methyl-3-(tetrahydropyran-4-yl)-hexahydropyrimidin-4-one] gave an IC50 of 10400 nM.

The compound `C[C@@]1(c2cccc(Nc3ccc(Cl)cc3S(C)(=O)=O)c2Cl)CC(=O)N(C2CCOCC2)C(=N)N1` [Example 118, (6S)-6-{2-Chloro-3-[4-chloro-2-(methylsulfonyl)anilino]-phenyl}-2-imino-6-methyl-3-(tetrahydropyran-4-yl)-hexahydropyrimidin-4-one] displayed an IC50 of 138 nM.

`CC1(C)CC(N2C(=N)N[C@](C)(c3cccc(Nc4ccn(C5CC5)c(=O)c4)c3Cl)CC2=O)CCO1` (single isomer, unassigned) [Example 205, (6S)-6-{2-Chloro-3-[(1-cyclo-propyl-2-oxopyridin-4-yl)-amino]phenyl}-3-[(4R*)-2,2-dimethyltetrahydropyran-4-yl]-2-imino-6-methylhexahydro-pyrimidin-4-one] returned an IC50 of 6210 nM.

Staying with this experiment, now noted: Version 2 of the assay procedure (asterisk *); 72 h incubation in infected erythrocytes; 50,000 nM to 15 nM.
Take `Cc1ccc(Nc2cccc([C@]3(C)CC(=O)N(C4CCOC(C)(C)C4)C(=N)N3)c2Cl)cn1` (single isomer, unassigned) [Example 145, (6S)-6-{2-Chloro-3-[(6-methyl-pyridin-3-yl)amino]phenyl}-3-[(4R*)-2,2-dimethyltetrahydro-pyran-4-yl]-2-imino-6-methyl-hexahydropyrimidin-4-one]: the IC50 turned out to be 1260 nM.

`CC1(C#N)CC(N2C(=N)N[C@](C)(c3cccc(Nc4ccc(F)cc4)c3Cl)CC2=O)C1` [Example 181, 3-{(4S)-4-[2-Chloro-3-(4-fluoroanilino)phenyl]-2-imino-4-methyl-6-oxohexahydro-pyrimidin-1-yl}-1-methyl-cyclobutanecarbonitrile (cis isomer)] returned an IC50 of 201 nM. Against the preceding compound, the IC50 is about 6.3-fold lower.
